Patent publication US20260035364A1, “BICYCLIC TETRAHYDROTHIAZEPINE DERIVATIVES” (Hoffmann-La Roche Inc., priority 2022, published 2026)

Columns and labels:
primary human T-cells [1] = test: IL2 secretion measurements in CD3-stimulated T-cells; assay type: cell-based; conditions: Homo sapiens, T-cell, 24 h, CD3 condition; for Emax: IL2 after 24 hours, 20 μM reference compound A1 = 100%, read-out: Emax IL2 (% activation); for EC50: IL2 secretion after 24 hours, read-out: Tcell IL2 CD3 EC50
Procedure: As readouts for T-cell activation, IL2 secretion after 24 hours and proliferation after 5 days was measured. Increases in IL2 secretion and proliferation upon compound treatment were assessed as the % of the maximum of reference compound A1. WO 2016/139181 discloses reference compound A1 as example 70. As a counter screen and to make sure that no unwanted TCR-independent activation was triggered, PBS conditions were run for all compounds.
Expanded primary human T-cells were thawed and cultured in RPMI 1640 (Gibco, #61870-010)+5% human serum (HS, Sigma, #H3667)+1 mM Sodium Pyruvate (Gibco, #11360-039)+50 μM 2-mercaptoethanol (Gibco, #31350-010) and 1× Pen-Strep (Life Technologies, #15140122) medium at density of 2 Mio/ml for 3 hours in 5% CO2, 37° C. and 95% humidity. For coating of plates, […] or PBS++ with CD3 antibody (concentration depending on donor and determined by CD3 titrations) was added 100 μl/well to Poly-D Lysine coated 96-well plates. Plates were sealed and incubated at room temperature for 3 hours on a table-top rocking platform. After incubation, plates were washed once with PBS−− and filled with 40 μl/well culture medium only. Compounds were then added (see next section) to medium only plates. After 3 hours of culturing the T-cells, cells were filtered through a cell strainer (Miltenyi Biotech, #130-041-407), counted again and concentration was adjusted to 1.25 Mio/ml.
Cells were then seeded 80 μl/well to the 40 μl/well including dispensed compounds according to plate layout. By adding cells, compounds were further diluted 1:3, and resulting in 100k cells/120 µl/well. After 24 hours 40 μl of supernatant was collected carefully from the top while not disturbing the cells and transferred into a round bottom 96 well plate. Collected and frozen supernatant was used for detection of IL2 using the IL-2 Human ProQuantum Immunoassay Kit (Invitrogen) or using the Human IL-2 ELISA Kit (Thermo Fisher).
(§1) Compound Treatment Compounds were added in a 5 or 6 pt dose response with the Tecan D300e Digital Dispenser, all conditions 3 times more concentrated than the end-concentration, since cells are added afterwards (80p1 cells to 40p1 prepared medium with treatment). The DR was starting at 20 μM or 10 μM final top concentration and a dilution factor of 3.333. The positive control was the reference compound A1 that was added in a dose response as well, additionally to 3 wells of only 20 μM representing the positive stimulator control. All wells were normalized with DMSO to a final concentration of 0.6% (0.2% end-concentration).
The immunoassay is done following the manufacturer's manual (Invitrogen, #A35603).
Additional information: For the immunoassay, MicroAmp™ EnduraPlate™ Optical 384-Well plates are used. Frozen supernatant is thawed and centrifuged for 5 minutes at 1000×g, both steps at 4° C. After centrifugation, required sample amount is taken from the top, and in a separate LightCycler V-bottom plate (working plate) diluted with assay dilution buffer, dilution factor depending on the PBS or CD3 condition but at least 1:3. IL-2 standard and blanks are prepared in the same V-bottom plate, standard with a range of 0.0128-5000 pg/ml (extended version). After preparation, 5 μl of sample dilutions or standard/blanks are transferred to the optical 384-well plate (assay plate) and the 10 μl reaction protocol is being followed. For measurement, the QuantStudio 12K Flex system is used. Raw data is extracted and IL-2 concentrations are calculated with the Thermo Fisher online app (apps.thermofisher.com/apps/proquantum).
ELISA is done following the manufacturer's manual (Thermo Fisher Scientific, #88-7025-88). Additional information: For the ELISA Nunc MaxiSorp 96 well plates are used. Frozen supernatant is thawed and centrifuged for 5 minutes at 1000×g, both steps at 4° C. […]

primary human T-cells [2] = test: T-cell proliferation assay (CellTiter-Glo); assay type: cell-based; conditions: Homo sapiens, T-cell, 120 h, CD3 condition; for Emax: 5 days, 20 μM reference compound A1 = 100%, read-out: Emax proliferation (% activation); for EC50: proliferation after 5 days, CellTiter-Glo, read-out: Tcell Proliferation CD3 EC50
Procedure: Expanded primary human T-cells are thawed and cultured in RPMI 1640 (Gibco, #61870-010)+5% human serum (HS, Sigma, #H3667)+1 mM Sodium Pyruvate (Gibco, #11360-039)+50 μM 2-mercaptoethanol (Gibco, #31350-010) and 1× Pen-Strep (Life Technologies, #15140122) medium at density of 2 Mio/ml for 3 hours in 5% CO2, 37° C. and 95% humidity. For coating of plates, PBS++ only or PBS++ with CD3 antibody (concentration depending on donor and determined by CD3 titrations) is added 100 μl/well to Poly-D Lysine coated 96-well plates. Plates are sealed and incubated at room temperature for 3 hours on a table-top rocking platform. After incubation, plates are washed once with PBS−− and filled with 40 μl/well culture medium only. Compounds are then added (see next section) to medium only plates. After 3 hours of culturing the T-cells, cells are filtered through a cell strainer (Miltenyi Biotech, #130-041-407), counted again and concentration is adjusted to 1.25 Mio/ml.
Cells are then seeded 80 μl/well to the 40 µl/well including dispensed compounds according to plate layout. By adding cells, compounds are further diluted 1:3, and resulting in 100k cells/120 µl/well. After 48 hours 40 μl of supernatant is collected carefully from the top while not disturbing the cells. Cells are assessed for proliferation 5 days later by measuring […] using CellTiterGlo (Promega).
as §1, with “Compounds” for “Compound Treatment Compounds”
After 5 days, for detection of ATP which is directly proportional to the number of cells present per well, the CellTiter-Glo® 2.0 Reagent is used. After visual control for toxicity or precipitations of the tested compounds, the plates are equilibrated to room temperature for 45 minutes. CellTiter-Glo® 2.0 Reagent is equilibrated to room temperature as well. After equilibration, an equal amount of CellTiter-Glo reagent is added to the cells (80 µl/well) with an electronic multichannel pipette. Plates are placed on a rocking platform for 15 minutes at room temperature. After incubation, the bottom of the plates is sealed with backing tape. Luminescence is measured with PHERAstar FSX (interval time 0.5 sec, gain 3000, focal height 15 mm) and exported as CSV file for analysis in Genedata screener.
Calculations and Data Reporting CD3 and PBS plates were analysed separately in Genedata Screener using Roche Normalization PCT_POS_CTRL with DMSO set as Neutral Control and 20 μM of the reference compound A1 set as Stimulator Control/100%.
For CD3 conditions EC50 and Emax of the fitted sigmoidal curve were reported. If no curve could be fitted, the EC50 was reported as blank field and the Emax was based on individual data points. […] Compounds which activate unstimulated cells (see IL2 measurements) or compounds which negatively affected viability were flagged.

DGKalpha = DGKalpha (Homo sapiens, UniProt P23743); test: In vitro DGK inhibition assay (ADP-Glo, liposomes), DGKalpha; assay type: biochemical; parameters: hDGKalpha(1-735)-N-His; His (N); made in house; host or cells: Sf21 insect cells (baculovirus); conditions: 4 nM DGK α, 25 μM ATP, 125 uM DLG in liposomes, 1 hour reaction
Procedure: (§2) DGK α and ζ kinases use ATP to phosphorylate the substrate 1,2-dilauroyl-sn-glycerol (DLG, incorporated in the liposomes). ATP is converted to ADP as a result of this enzymatic reaction. After the kinase reaction, an ATP-depletion reagent is added to terminate the kinase reaction and deplete any remaining ATP, leaving only ADP. Second, a detection reagent is added to simultaneously convert ADP to ATP and allow the newly synthesized ATP to be converted to light using a coupled luciferase/luciferin reaction.
Full length DGKA and Z were expressed in Sf21 insect cells by infecting the cells with the baculovirus stock at MOI of 2. Purification of both enzymes was performed as previously described by Takahashi et al., PeerJ, 2018 (Takahashi, D.; Sakane, F. Expression and purification of human diacylglycerol kinase alpha from baculovirus-infected insect cells for structural studies. PeerJ 2018, 6, No. e5449).
(§3) A concentrated liposome solution was prepared in assay buffer without DTT and BSA: 2 mM of DLG in 21 mM of total liposome (2 mM DLG/8 mM PS/11 mM PC). The reaction mixtures contain the assay buffer with a final DLG concentration of 125 uM ATP concentrations of 25 μM (for DGKA assay) or 50 μM (for DGKZ assay). The reactions were started by addition of DGK a and (kinases at 4 nM and 2 nM final concentrations, respectively. After 1 hour reaction, the amount of ADP formed was detected with the ADP-Glo kinase assay (Promega) according to the manufacturer instructions. Compounds were added in 11-points dose response, starting at […], 1:3 dilutions, with a final DMSO concentration of 2%. The multidrop combi was used as a liquid handler and luminescence was read with 0.5 s by the envision reader (PE).

DGKzeta = DGKzeta (Homo sapiens, UniProt Q13574); test: In vitro DGK inhibition assay (ADP-Glo, liposomes), DGKzeta; assay type: biochemical; parameters: hDGKzeta(1-928)-N-His; His (N); made in house; host or cells: Sf21 insect cells (baculovirus); conditions: 2 nM DGK ζ, 50 μM ATP, 125 uM DLG in liposomes, 1 hour reaction
Procedure: as §2
Purification of both enzymes was performed as previously described by Takahashi et al., PeerJ, 2018 (Takahashi, D.; Sakane, F. Expression and purification of human diacylglycerol kinase alpha from baculovirus-infected insect cells for structural studies. PeerJ 2018, 6, No. e5449).
as §3

DGKzeta, sequence (Q13574 whole entry): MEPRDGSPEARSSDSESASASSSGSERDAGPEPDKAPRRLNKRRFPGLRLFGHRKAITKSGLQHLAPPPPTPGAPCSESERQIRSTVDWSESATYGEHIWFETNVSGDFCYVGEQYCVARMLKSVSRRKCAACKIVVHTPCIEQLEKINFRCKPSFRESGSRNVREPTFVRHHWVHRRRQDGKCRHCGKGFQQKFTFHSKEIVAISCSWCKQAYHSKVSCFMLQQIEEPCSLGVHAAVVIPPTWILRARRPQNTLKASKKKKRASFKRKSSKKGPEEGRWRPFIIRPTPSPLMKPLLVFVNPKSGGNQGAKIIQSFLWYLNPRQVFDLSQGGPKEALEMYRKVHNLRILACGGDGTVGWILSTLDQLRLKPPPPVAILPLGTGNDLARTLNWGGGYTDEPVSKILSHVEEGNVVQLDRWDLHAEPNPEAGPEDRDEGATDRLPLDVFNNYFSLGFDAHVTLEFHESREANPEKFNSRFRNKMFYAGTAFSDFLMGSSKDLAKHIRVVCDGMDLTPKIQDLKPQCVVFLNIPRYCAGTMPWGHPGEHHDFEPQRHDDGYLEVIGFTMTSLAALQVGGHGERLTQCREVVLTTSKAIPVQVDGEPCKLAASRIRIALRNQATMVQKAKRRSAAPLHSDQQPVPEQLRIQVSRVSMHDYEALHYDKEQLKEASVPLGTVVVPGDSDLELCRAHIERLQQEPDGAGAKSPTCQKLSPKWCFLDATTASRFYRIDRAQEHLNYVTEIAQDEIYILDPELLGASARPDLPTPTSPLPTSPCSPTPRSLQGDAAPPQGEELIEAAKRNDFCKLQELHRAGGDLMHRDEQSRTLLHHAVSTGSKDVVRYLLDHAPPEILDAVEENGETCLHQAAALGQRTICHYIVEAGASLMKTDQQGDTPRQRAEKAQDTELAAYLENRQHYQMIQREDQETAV
DGKalpha, sequence (P23743 whole entry): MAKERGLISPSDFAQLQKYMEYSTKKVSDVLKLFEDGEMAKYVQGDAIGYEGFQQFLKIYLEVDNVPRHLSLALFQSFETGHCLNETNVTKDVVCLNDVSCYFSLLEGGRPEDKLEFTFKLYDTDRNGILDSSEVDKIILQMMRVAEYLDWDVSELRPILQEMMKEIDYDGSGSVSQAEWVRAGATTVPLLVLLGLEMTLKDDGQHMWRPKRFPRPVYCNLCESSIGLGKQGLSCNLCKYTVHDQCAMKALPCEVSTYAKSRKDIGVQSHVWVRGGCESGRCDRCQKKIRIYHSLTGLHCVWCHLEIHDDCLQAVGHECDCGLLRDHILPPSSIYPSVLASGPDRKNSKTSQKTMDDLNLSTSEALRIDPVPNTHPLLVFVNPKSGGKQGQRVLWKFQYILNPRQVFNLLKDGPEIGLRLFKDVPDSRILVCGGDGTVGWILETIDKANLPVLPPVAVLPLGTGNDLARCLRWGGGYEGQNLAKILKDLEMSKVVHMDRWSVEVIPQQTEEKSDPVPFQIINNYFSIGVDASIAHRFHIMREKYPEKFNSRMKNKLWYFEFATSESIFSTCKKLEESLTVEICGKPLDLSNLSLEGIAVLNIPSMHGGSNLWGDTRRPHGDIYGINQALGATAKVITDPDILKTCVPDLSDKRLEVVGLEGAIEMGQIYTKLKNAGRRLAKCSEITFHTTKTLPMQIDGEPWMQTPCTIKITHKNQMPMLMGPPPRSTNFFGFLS

Row | SMILES | EC50 (primary human T-cells [1]) | IC50 (DGKalpha) | IC50 (DGKzeta) | Emax (primary human T-cells [1]) | Emax (primary human T-cells [2]) | EC50 (primary human T-cells [2])
1 | CC(C)(c1nnc(-c2cc3c(cc2F)S(=O)(=O)C[C@H](N)C(=O)N3Cc2ccc(-c3ccc(C(F)(F)F)cn3)cc2)o1)S(C)(=O)=O [Example 25, (3R)-3-amino-8-fluoro-7-[5-(1-methyl-1-methylsulfonyl-ethyl)-1,3,4-oxadiazol-2-yl]-1,1-dioxo-5-[[4-[5-(trifluoromethyl)-2-pyridyl]phenyl]methyl]-2,3-dihydro-1λ6,5-benzothiazepin-4-one] | 0.566 µM |  |  | 244% |  | 
2 | CC(C)(c1nnc(-c2ccc3c(c2)N(Cc2ccc(COc4ccccc4)cc2)C(=O)[C@@H](N)CS3(=O)=O)o1)S(C)(=O)=O [Example 8, (3R)-3-amino-7-[5-(1-methyl-1-methylsulfonyl-ethyl)-1,3,4-oxadiazol-2-yl]-1,1-dioxo-5-[[4-(phenoxymethyl)phenyl]methyl]-2,3-dihydro-1λ6,5-benzothiazepin-4-one] |  |  |  | 177% | 174% | 

The next lines start with results.

Row | EC50 (primary human T-cells [1]) | IC50 (DGKalpha) | IC50 (DGKzeta) | SMILES | Emax (primary human T-cells [1]) | Emax (primary human T-cells [2]) | EC50 (primary human T-cells [2])
3 | > 10 µM |  |  | CC(C)N(C)c1ccc(CN2C(=O)[C@@H](N)CS(=O)(=O)c3ccc(-c4nnc(C(C)(C)S(C)(=O)=O)o4)cc32)cc1 [Example 18, (3R)-3-amino-5-[[4-[isopropyl(methyl)amino]phenyl]methyl]-7-[5-(1-methyl-1-methylsulfonyl-ethyl)-1,3,4-oxadiazol-2-yl]-1,1-dioxo-2,3-dihydro-126,5-benzothiazepin-4-one] | 46% | 63% | 6.35 µM
4 | 1.3 µM |  |  | CC(C)(c1nnc(-c2ccc3c(c2)N(Cc2ccc(OCc4cccc(F)c4)cc2)C(=O)[C@@H](N)CS3(=O)=O)o1)S(C)(=O)=O [Example 13, (3R)-3-amino-5-[[4-[(3-fluorophenyl)methoxy]phenyl]methyl]-7-[5-(1-methyl-1-methylsulfonyl-ethyl)-1,3,4-oxadiazol-2-yl]-1,1-dioxo-2,3-dihydro-1λ6,5-benzothiazepin-4-one] | 181% | 92% | 1.14 µM
5 | 0.185 µM | 1.16 µM | 0.573 µM | CC(C)(c1nnc(-c2cc3c(cc2F)S(=O)(=O)C[C@H](N)C(=O)N3Cc2ccc(-c3noc(C(F)(F)F)n3)cc2)o1)S(C)(=O)=O [Example 28, (3R)-3-amino-8-fluoro-7-[5-(1-methyl-1-methylsulfonyl-ethyl)-1,3,4-oxadiazol-2-yl]-1,1-dioxo-5-[[4-[5-(trifluoromethyl)-1,2,4-oxadiazol-3-yl]phenyl]methyl]-2,3-dihydro-1λ6,5-benzothiazepin-4-one] | 307% |  | 
